Legend:
Experiment in all cases: Test C pre-/postemergence herbicide test
velvetleaf = format: in vivo, Abutilon theophrasti
Method in brief: (§1)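 Preemergence: seeds planted and treated with compound in non-phytotoxic solvent with surfactant; postemergence: plants at 2 to 18 cm (1- to 4-leaf stage) sprayed likewise. Kept in greenhouse 12 to 14 days, then visually rated against controls, 0 (no effect) to 100 (complete control).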

common ragweed = format: in vivo, Ambrosia elatior; set-up: key to Plant response rating, Ragweed: 0 = no effect, 100 = complete control
Method in brief: as §1

giant foxtail = format: in vivo, Setaria faberi
Method in brief: as §1

lambsquarters = format: in vivo, Chenopodium album
Method in brief: as §1

[1] = tested on: common (oilseed) sunflower; format: in vivo, Helianthus annuus
Method in brief: as §1

kochia = format: in vivo, Kochia scoparia
Method in brief: as §1

corn = format: in vivo, Zea mays
Method in brief: as §1

[2] = 62 g ai/ha, preemergence, scale 0 to 100
[3] = 250 g ai/ha, scale 0-100, preemergence
[4] = 500 g ai/ha, scale 0 to 100 (0 no effect, 100 complete control), visual, 12 to 14 days, preemergence
[5] = 125 g ai/ha, scale 0 (no effect) to 100 (complete control), visual, 12 to 14 days, preemergence

CCNC(=O)c1cccc(NC(=O)c2nn(C(C)(C)C)cc2Br)c1 [Compound 221, 4-bromo-1-(1,1-dimethylethyl)-N-[3-[(ethylamino)carbonyl]phenyl]-1H-pyrazole-3-carboxamide]
pest or weed control at 62 g/ha (velvetleaf; Abutilon theophrasti, pre-emergence, 62 g ai/ha, preemergence, scale 0 to 100, read-out: Plant response rating, Velvetleaf): 0% | pest or weed control at 250 g/ha (velvetleaf; Abutilon theophrasti, pre-emergence, 250 g ai/ha, scale 0-100, read-out: Plant response rating, Velvetleaf): 60% | pest or weed control at 500 g/ha (velvetleaf; Abutilon theophrasti, pre-emergence, 500 g ai/ha, scale 0 to 100 (0 no effect, 100 complete control), visual, 12 to 14 days, read-out: Plant response rating, Velvetleaf): 80% | pest or weed control at 62 g/ha (common ragweed; Ambrosia artemisiifolia, pre-emergence, 62 g ai/ha, preemergence, scale 0 to 100, read-out: Plant response rating, Ragweed): 0% | pest or weed control at 500 g/ha (common ragweed; Ambrosia artemisiifolia, pre-emergence, 500 g ai/ha, scale 0 to 100 (0 no effect, 100 complete control), visual, 12 to 14 days, read-out: Plant response rating, Ragweed): 60% | pest or weed control at 62 g/ha (giant foxtail; Setaria faberi, pre-emergence, 312 h, 62 g ai/ha, preemergence, scale 0 to 100, read-out: Plant response rating, Foxtail, Giant): 0% | pest or weed control at 125 g/ha (giant foxtail; Setaria faberi, pre-emergence, 312 h, 125 g ai/ha, scale 0 (no effect) to 100 (complete control), visual, 12 to 14 days, read-out: Plant response rating, Foxtail, Giant): 0% | pest or weed control at 250 g/ha (giant foxtail; Setaria faberi, pre-emergence, 312 h, 250 g ai/ha, scale 0-100, read-out: Plant response rating, Foxtail, Giant): 40% | pest or weed control at 500 g/ha (giant foxtail; Setaria faberi, pre-emergence, 312 h, 500 g ai/ha, scale 0 to 100 (0 no effect, 100 complete control), visual, 12 to 14 days, read-out: Plant response rating, Foxtail, Giant): 90% | pest or weed control at 62 g/ha (lambsquarters; Chenopodium album, pre-emergence, 62 g ai/ha, preemergence, scale 0 to 100, read-out: Plant response rating, Lambsquarters): 0% | pest or weed control at 125 g/ha (lambsquarters; Chenopodium album, pre-emergence, 125 g ai/ha, scale 0 (no effect) to 100 (complete control), visual, 12 to 14 days, read-out: Plant response rating, Lambsquarters): 20% | pest or weed control at 250 g/ha (lambsquarters; Chenopodium album, pre-emergence, 250 g ai/ha, scale 0-100, read-out: Plant response rating, Lambsquarters): 90% | pest or weed control at 500 g/ha (lambsquarters; Chenopodium album, pre-emergence, 500 g ai/ha, scale 0 to 100 (0 no effect, 100 complete control), visual, 12 to 14 days, read-out: Plant response rating, Lambsquarters): 100% | pest or weed control at 62 g/ha ([1]; Helianthus annuus, pre-emergence, 62 g ai/ha, preemergence, scale 0 to 100, read-out: Plant response rating, Sunflower): 0% | pest or weed control at 250 g/ha ([1]; Helianthus annuus, pre-emergence, 250 g ai/ha, scale 0-100, read-out: Plant response rating, Sunflower): 0% | pest or weed control at 500 g/ha ([1]; Helianthus annuus, pre-emergence, 500 g ai/ha, scale 0 to 100 (0 no effect, 100 complete control), visual, 12 to 14 days, read-out: Plant response rating, Sunflower): 30% | pest or weed control at 62 g/ha (kochia; Bassia scoparia, pre-emergence, 62 g ai/ha, preemergence, scale 0 to 100, read-out: Plant response rating, Kochia): 0% | pest or weed control at 125 g/ha (kochia; Bassia scoparia, pre-emergence, 125 g ai/ha, scale 0 (no effect) to 100 (complete control), visual, 12 to 14 days, read-out: Plant response rating, Kochia): 0% | pest or weed control at 250 g/ha (kochia; Bassia scoparia, pre-emergence, 250 g ai/ha, scale 0-100, read-out: Plant response rating, Kochia): 65% | pest or weed control at 500 g/ha (kochia; Bassia scoparia, pre-emergence, 500 g ai/ha, scale 0 to 100 (0 no effect, 100 complete control), visual, 12 to 14 days, read-out: Plant response rating, Kochia): 100% | Corn plant response rating (crop injury, 0 = no effect, 100 = complete kill) at 62 g/ha (corn; Zea mays, pre-emergence, 312 h, 62 g ai/ha, preemergence, scale 0 to 100): 0% | Corn plant response rating (crop injury, 0 = no effect, 100 = complete kill) at 125 g/ha (corn; Zea mays, pre-emergence, 312 h, 125 g ai/ha, scale 0 (no effect) to 100 (complete control), visual, 12 to 14 days): 0% | Corn plant response rating (crop injury, 0 = no effect, 100 = complete kill) at 250 g/ha (corn; Zea mays, pre-emergence, 312 h, 250 g ai/ha, scale 0-100): 0% | Corn plant response rating (crop injury, 0 = no effect, 100 = complete kill) at 500 g/ha (corn; Zea mays, pre-emergence, 312 h, 500 g ai/ha, scale 0 to 100 (0 no effect, 100 complete control), visual, 12 to 14 days): 10%

CCn1nc(C(C)(C)C)cc1C(=O)Nc1ccc(OC)c(OC)c1 [Compound 298]
Plant response rating, Velvetleaf (velvetleaf; [2]): 60 | Plant response rating, Velvetleaf (velvetleaf; [3]): 100 | Plant response rating, Velvetleaf (velvetleaf; [4]): 100 | Plant response rating, Ragweed (common ragweed; [2]): 0 | Plant response rating, Ragweed (common ragweed; [3]): 0 | Plant response rating, Ragweed (common ragweed; [4]): 0 | Plant response rating, Foxtail, Giant (giant foxtail; [2]): 20 | Plant response rating, Foxtail, Giant (giant foxtail; [5]): 70 | Plant response rating, Foxtail, Giant (giant foxtail; [3]): 70 | Plant response rating, Foxtail, Giant (giant foxtail; [4]): 100 | Plant response rating, Lambsquarters (lambsquarters; [2]): 100 | Plant response rating, Lambsquarters (lambsquarters; [5]): 100 | Plant response rating, Lambsquarters (lambsquarters; [3]): 100 | Plant response rating, Lambsquarters (lambsquarters; [4]): 100 | Plant response rating, Sunflower [1, 2]: 0 | Plant response rating, Sunflower [1, 3]: 0 | Plant response rating, Sunflower [1, 4]: 0 | Plant response rating, Kochia (kochia; [2]): 80 | Plant response rating, Kochia (kochia; [5]): 95 | Plant response rating, Kochia (kochia; [3]): 100 | Plant response rating, Kochia (kochia; [4]): 100 | Plant response rating, Corn (corn; [2]): 0 | Plant response rating, Corn (corn; [5]): 10 | Plant response rating, Corn (corn; [3]): 15 | Plant response rating, Corn (corn; [4]): 30

CCn1nc(C2(C)CC2)cc1C(=O)Nc1cc(C(=O)N2CC=CC2)ccc1F [Compound 301]
Plant response rating, Velvetleaf (velvetleaf; [2]): 20 | Plant response rating, Velvetleaf (velvetleaf; [3]): 100 | Plant response rating, Velvetleaf (velvetleaf; [4]): 100 | Plant response rating, Ragweed (common ragweed; [2]): 10 | Plant response rating, Ragweed (common ragweed; [3]): 65 | Plant response rating, Ragweed (common ragweed; [4]): 70 | Plant response rating, Foxtail, Giant (giant foxtail; [2]): 35 | Plant response rating, Foxtail, Giant (giant foxtail; [5]): 60 | Plant response rating, Foxtail, Giant (giant foxtail; [3]): 95 | Plant response rating, Foxtail, Giant (giant foxtail; [4]): 100 | Plant response rating, Lambsquarters (lambsquarters; [2]): 100 | Plant response rating, Lambsquarters (lambsquarters; [5]): 100 | Plant response rating, Lambsquarters (lambsquarters; [3]): 100 | Plant response rating, Lambsquarters (lambsquarters; [4]): 100 | Plant response rating, Sunflower [1, 2]: 0 | Plant response rating, Sunflower [1, 3]: 0 | Plant response rating, Sunflower [1, 4]: 0 | Plant response rating, Kochia (kochia; [2]): 100 | Plant response rating, Kochia (kochia; [5]): 100 | Plant response rating, Kochia (kochia; [3]): 100 | Plant response rating, Kochia (kochia; [4]): 100 | Plant response rating, Corn (corn; [2]): 10 | Plant response rating, Corn (corn; [5]): 10 | Plant response rating, Corn (corn; [3]): 40 | Plant response rating, Corn (corn; [4]): 45
